US4004028A, “Phenoxypropanolamines” (SmithKline Corporation, priority 1975, dated 1977)
Values after ≈ are worked out from the molar mass of the structure shown.

Tests used:
[1] = test system: guinea pig tracheal chain preparations; assay: effect on spontaneous tone of guinea pig tracheal chain (ring) preparations, β-stimulant direct relaxant effect on airway smooth muscle; assay type: cell-based; conditions: for absolute separation ratio: atrial ED25 versus tracheal ED50, in vitro guinea pig preparations
Excerpt: (§1) Two in vitro test systems used for determining selective β-stimulant activity are: (1) effect on spontaneous tone of guinea pig tracheal chain preparations as a measure of β-stimulant (direct relaxant) effect on airway smooth muscle, and (2) effect on rate of spontaneously beating right atria of the guinea pig as a measure of β-stimulant effect on cardiac muscle.

guinea pig right atria = assay: effect on rate of spontaneously beating right atria of the guinea pig, β-stimulant effect on cardiac muscle; assay type: cell-based; conditions: Cavia porcellus, in vitro, read-out: ED25, increasing the rate of contraction of guinea pig right atria
Excerpt: as §1

| EC50 ([1]; Cavia porcellus, in vitro, guinea pig tracheal ring preparation, read-out: ED50, relaxes the spontaneous tone of guinea pig tracheal ring preparation) | Compound | absolute separation ratio [1] | fold improvement of absolute separation ratio compared to d, l-isoproterenol ([1]; relative to d, l-isoproterenol (absolute separation ratio = 0.5)) | EC25 (guinea pig right atria) |
| --- | --- | --- | --- | --- |
| 0.00219 µg/mL (≈ 0.00659 µM) | CC(C)(C)NCC(O)COc1ccc(O)c(NS(C)(=O)=O)c1 (centres unmarked) [3-(4-hydroxy-3-methanesulfonamidophenoxy)-1-(tert-butylamino)-2-propanol] | 186 | 372 fold | 0.409 µg/mL (≈ 1.23 µM) |
| – | CC(C)NCC(O)c1ccc(O)c(O)c1 (stereo not drawn) [d, l-isoproterenol, reference compound] | 0.5 | – | – |
